Experimental data from ChEMBL document CHEMBL2202983, “Structure-anti-leukemic activity relationship study of ortho-dihydroxycoumarins in U-937 cells: key role of the δ-lactone ring in determining differentiation-inducing potency and selective pro-apoptotic action” (Bioorg Med Chem, 2012).
Calls of active or inactive are those of the source. The rule behind the calls is not given here.

system: U-937; assay: Induction of apoptosis in human U937 cells assessed as active 11 kDa fragment of caspase-3 at 250 uM after 24 hrs by Western blot analysis; type: functional, cell-based; conditions: not given

SMILES	Activity
O=c1ccc2cc(O)c(O)cc2o1 [ESCULETIN]	Active
COc1cc2ccc(=O)oc2c(O)c1O [FRAXETIN]	Active

system: U-937; assay: Induction of apoptosis in human U937 cells assessed as activation of caspase-3 at 1000 uM after 48 hrs by colorimetric assay; type: functional, cell-based; conditions: not given

SMILES	Activity
O=C(O)CCc1ccc(O)c(O)c1 [DIHYDROCAFFEIC ACID]	inactive

system: U-937; assay: Induction of apoptosis in human U937 cells assessed as PARP cleavage at 250 uM after 24 hrs by Western blot analysis; type: functional, cell-based; conditions: not given

SMILES	Activity
O=c1ccc2cc(O)c(O)cc2o1 [ESCULETIN]	Active
COc1cc2ccc(=O)oc2c(O)c1O [FRAXETIN]	Active

system: U-937; assay: Induction of apoptosis in human U937 cells assessed as activation of caspase-3 at 250 uM after 24 hrs by colorimetric assay; type: functional, cell-based; conditions: not given

SMILES	Activity
O=c1ccc2cc(O)c(O)cc2o1 [ESCULETIN]	Active
COc1cc2ccc(=O)oc2c(O)c1O [FRAXETIN]	Active

system: U-937; assay: Induction of apoptosis in human U937 cells assessed as reduction of normal cells at 1000 uM after 24 hrs by Annexin V-FITC double staining; type: functional, cell-based; conditions: not given

SMILES	Activity
O=C(O)CCc1ccc(O)c(O)c1 [DIHYDROCAFFEIC ACID]	inactive

system: U-937; assay: Induction of apoptosis in human U937 cells assessed as phosphatidylserine expression in plasma membrane at 1000 uM after 24 hrs by Annexin V-FITC double staining; type: functional, cell-based; conditions: not given

SMILES	Activity
O=C(O)CCc1ccc(O)c(O)c1 [DIHYDROCAFFEIC ACID]	Active

system: U-937; assay: Inhibition of clonogenic activity in human U937 cells assessed as reduction of colony formation in soft agar at 100 to 250 uM after 24 hrs using crystal violet staining; type: functional, cell-based; conditions: not given

SMILES	colony formation inhibition (active/not active)
O=C(O)CCc1ccc(O)c(O)c1 [DIHYDROCAFFEIC ACID]	inactive
O=c1ccc2cc(O)c(O)cc2o1 [ESCULETIN]	Active
COc1cc2ccc(=O)oc2c(O)c1O [FRAXETIN]	Active

system: U-937; assay: Cell cycle arrest in human U937 cells assessed as accumulation at sub-G0/G1 phase at 250 uM after 24 hrs using propidium iodide staining by FACS analysis; type: functional, cell-based; conditions: not given

SMILES	Activity
O=c1ccc2cc(O)c(O)cc2o1 [ESCULETIN]	Active
COc1cc2ccc(=O)oc2c(O)c1O [FRAXETIN]	Active

system: U-937; assay: Cytotoxicity against human U937 cells after 48 hrs by trypan blue assay; type: functional; conditions: U-937, 48 h

SMILES	CC50
O=C(O)CCc1ccc(O)c(O)c1 [DIHYDROCAFFEIC ACID]	> 2000 µM
O=c1ccc2cc(O)c(O)cc2o1 [ESCULETIN]	108 µM
COc1cc2ccc(=O)oc2c(O)c1O [FRAXETIN]	70.2 µM

system: U-937; assay: Antiproliferative activity against human U937 cells assessed as incorporation of [3H]-methyl-thymidine after 12 hrs by scintillation counting; type: functional, cell-based; conditions: not given

SMILES	IC50
O=C(O)CCc1ccc(O)c(O)c1 [DIHYDROCAFFEIC ACID]	213 µM
O=c1ccc2cc(O)c(O)cc2o1 [ESCULETIN]	143 µM
COc1cc2ccc(=O)oc2c(O)c1O [FRAXETIN]	143 µM

system: U-937; assay: Induction of cell differentiation in human U937 cells assessed as increase of rhC5a-induced response at 250 to 500 uM after 72 hrs by FACS flow cytometer analysis; type: functional, cell-based; conditions: not given

SMILES	Activity
O=C(O)CCc1ccc(O)c(O)c1 [DIHYDROCAFFEIC ACID]	Active

system: U-937; assay: Induction of apoptosis in human U937 cells assessed as reduction of normal cells at 250 uM after 24 hrs by Annexin V-FITC double staining; type: functional, cell-based; conditions: not given

SMILES	Activity
O=c1ccc2cc(O)c(O)cc2o1 [ESCULETIN]	Active
COc1cc2ccc(=O)oc2c(O)c1O [FRAXETIN]	Active

system: Jurkat; assay: Induction of apoptosis in human Jurkat cells assessed as activation of caspase-3 at 500 uM after 24 hrs by colorimetric assay; type: functional, cell-based; conditions: not given

SMILES	Activity
O=C(O)CCc1ccc(O)c(O)c1 [DIHYDROCAFFEIC ACID]	Active

system: U-937; assay: Induction of DNA damage in human U937 cells; type: functional, cell-based; conditions: not given

SMILES	Activity
O=C(O)CCc1ccc(O)c(O)c1 [DIHYDROCAFFEIC ACID]	inactive

system: Jurkat; assay: Cytotoxicity against human Jurkat at 250 uM after 48 hrs by trypan blue assay; type: functional, cell-based; conditions: not given

SMILES	Activity
O=C(O)CCc1ccc(O)c(O)c1 [DIHYDROCAFFEIC ACID]	Active

system: Jurkat; assay: Induction of apoptosis in human Jurkat cells at 500 uM after 48 hrs by Annexin V-FITC double staining; type: functional, cell-based; conditions: not given

SMILES	Activity
O=C(O)CCc1ccc(O)c(O)c1 [DIHYDROCAFFEIC ACID]	inactive

system: Jurkat; assay: Induction of apoptosis in human Jurkat cells assessed as activation of caspase-3-mediated PARP cleavage at 500 uM after 24 hrs by colorimetric assay; type: functional, cell-based; conditions: not given

SMILES	Activity
O=C(O)CCc1ccc(O)c(O)c1 [DIHYDROCAFFEIC ACID]	Active

system: U-937; assay: Pro-oxidant activity in human U937 cells assessed as DCF-DA oxidation at 10 to 250 uM after 48 hrs by fluorescence assay; type: functional, cell-based; conditions: not given

SMILES	Activity
O=C(O)CCc1ccc(O)c(O)c1 [DIHYDROCAFFEIC ACID]	inactive

system: not listed separately; assay: Induction of free radicals production in carbonate buffer at pH 9 by electron spin resonance analysis; type: physicochemical; conditions: not given

SMILES	Activity
O=C(O)CCc1ccc(O)c(O)c1 [DIHYDROCAFFEIC ACID]	Active
O=c1ccc2cc(O)c(O)cc2o1 [ESCULETIN]	Active
COc1cc2ccc(=O)oc2c(O)c1O [FRAXETIN]	Active

system: not listed separately; assay: Induction of free radicals production in RPMI 1640 medium at pH 7.4 by electron spin resonance analysis; type: physicochemical; conditions: not given

SMILES	Activity
O=C(O)CCc1ccc(O)c(O)c1 [DIHYDROCAFFEIC ACID]	Active
O=c1ccc2cc(O)c(O)cc2o1 [ESCULETIN]	Active
COc1cc2ccc(=O)oc2c(O)c1O [FRAXETIN]	Active

system: not listed separately; assay: Pro-oxidant activity in 0.1 M potassium phosphate buffer at pH 7.4 assessed as increase of oxidation potential by cyclic voltammetry analysis; type: physicochemical; conditions: not given

SMILES	Activity
O=C(O)CCc1ccc(O)c(O)c1 [DIHYDROCAFFEIC ACID]	Active

system: U-937; assay: Induction of cell differentiation in human U937 cells assessed as increase of CD88 expression at 250 to 500 uM after 72 hrs by FACS flow cytometer analysis; type: functional, cell-based; conditions: not given

SMILES	Activity
O=C(O)CCc1ccc(O)c(O)c1 [DIHYDROCAFFEIC ACID]	Active

system: U-937; assay: Induction of cell differentiation in human U937 cells assessed as increase of CD11b and CD14 expression at 250 to 500 uM after 72 hrs by FACS flow cytometer analysis; type: functional, cell-based; conditions: not given

SMILES	Activity
O=C(O)CCc1ccc(O)c(O)c1 [DIHYDROCAFFEIC ACID]	Active
